≈ marks a conversion by molar mass, not a printed value. Where two headings read alike, the source gives them in different places. A value given as a limit tells only on which side of the number the result lay.

Holding throughout (format): cell-based
One experiment concerns E. coli ATCC25922. Put plainly: Bacterial growth minimal inhibitory concentration (microdilution, cation-adjusted Mueller-Hinton Broth). The following applies: Escherichia coli, ATCC25922; quinolone-sensitive strain. Here is the method: (§1) Minimal Inhibitory Concentrations (MICs; mg/L) were determined in cation-adjusted Mueller-Hinton Broth by a microdilution method following the description given in “Methods for Dilution Antimicrobial Susceptibility Tests for Bacteria that grow Aerobically”, Approved standard, 7th ed., Clinical and Laboratory Standards Institute (CLSI) Document M7-A7, Wayne, Pa., USA (2006).
(§2) All Example compounds were tested against several Gram-positive and Gram-negative bacteria. […] K. pneumoniae A-651 is a multiply-resistant strain (in particular quinolone-resistant), while E. coli ATCC25922 and P. aeruginosa ATCC27853 are quinolone-sensitive strains.

A further experiment concerns K. pneumoniae A-651. Described as above. The following applies: Klebsiella pneumoniae, A651; multiply-resistant strain (in particular quinolone-resistant). How it is done:
as §1, §2

The test system of a further experiment is P. aeruginosa ATCC27853. Described as above. The following applies: Pseudomonas aeruginosa, ATCC27853; quinolone-sensitive strain. Here is the method: as §1, §2
The test system of another experiment is wild-type E. coli A-1261. In words: MIC against wild-type E. coli A-1261 with or without alkaline phosphatase or esterase (prodrug activation). The following applies: Escherichia coli. Here is the method: Minimal Inhibitory Concentrations (MICs; mg/L) were determined in cation-adjusted Mueller-Hinton Broth by a microdilution method following the description given in “Methods for Dilution Antimicrobial Susceptibility Tests for Bacteria that grow Aerobically”, Approved standard, 7th ed., Clinical and Laboratory Standards Institute (CLSI) Document M7-A7, Wayne, Pa., USA (2006). The compounds of Examples 4 and 16 were tested against wild-type E. coli A-1261 in the absence of alkaline phosphatase or esterase, in the presence of an alkaline phosphatase, and in the presence of an esterase. The corresponding antibacterial test results are given in Table 2 hereafter (MICs in mg/L).

Where [1] appears, read: alkaline phosphatase 2 i.U./mL, read-out: MIC for E. coli A-1261 In the presence of an alkaline phosphatase (2 i.U./mL).
Where [2] appears, read: esterase 10 i.U./mL, read-out: MIC for E. coli A-1261 In the presence of an esterase (10 i.U./mL).
[3] abbreviates: no alkaline phosphatase or esterase, read-out: MIC for E. coli A-1261 In the absence of alkaline phosphatase or esterase.

On to `C[C@@](CCN1Cc2cc(C#CC#C[C@H]3C[C@]3(F)CO)sc2C1=O)(C(=O)NO)S(C)(=O)=O` [Example 4, (2R)-4-(2-(((1R,2R)-2-fluoro-2-(hydroxymethyl)cyclopropyl)buta-1,3-diyn-1-yl)-6-oxo-4,6-dihydro-5H-thieno[2,3-c]pyrrol-5-yl)-N-hydroxy-2-methyl-2-(methylsulfonyl)butanamide], for which the MIC is 0.25 µg/mL (≈ 0.534 µM) with E. coli ATCC25922; 0.5 µg/mL (≈ 1.07 µM) against K. pneumoniae A-651; 0.5 µg/mL (≈ 1.07 µM) in the experiment on P. aeruginosa ATCC27853; 0.25 µg/mL in the experiment with wild-type E. coli A-1261 (setting [1]); 0.25 µg/mL in the experiment on wild-type E. coli A-1261 (setting [2]); 0.125 µg/mL (≈ 0.267 µM) in the experiment on wild-type E. coli A-1261 (setting [3]).

In the case of `C[C@@](CCN1Cc2cc(C#CC#C[C@H]3C[C@]3(F)COP(=O)(O)O)sc2C1=O)(C(=O)NO)S(C)(=O)=O` [Example 16, ((1R,2R)-1-fluoro-2-((5-((3R)-4-(hydroxyamino)-3-methyl-3-(methylsulfonyl)-4-oxobutyl)-6-oxo-5,6-dihydro-4H-thieno[2,3-c]pyrrol-2-yl)buta-1,3-diyn-1-yl)cyclopropyl)methyl dihydrogen phosphate], the MIC with wild-type E. coli A-1261 (setting [1]) is 0.25 µg/mL; with wild-type E. coli A-1261 (setting [2]), above 8 µg/mL; in the experiment on wild-type E. coli A-1261 (setting [3]) it was above 8 µg/mL.

As for `CN1C[C@@H](C#CC#Cc2cc3c(s2)C(=O)N(CC[C@](C)(C(=O)NO)S(C)(=O)=O)C3)[C@@H]1CO` [Example 35, (2R)—N-hydroxy-4-(2-(((2R,3R)-2-(hydroxymethyl)-1-methylazetidin-3-yl)buta-1,3-diyn-1-yl)-6-oxo-4,6-dihydro-5H-thieno[2,3-c]pyrrol-5-yl)-2-methyl-2-(methylsulfonyl)butanamide], the values for the MIC in the experiment on E. coli ATCC25922, in the experiment with K. pneumoniae A-651 and with P. aeruginosa ATCC27853 were 0.5 µg/mL (≈ 1.04 µM), 2 µg/mL (≈ 4.17 µM) and 1 µg/mL (≈ 2.09 µM), respectively.

Regarding `CN1C[C@@H](C#CC#Cc2cc3c(s2)C(=O)N(CC[C@](C)(C(=O)NO)S(C)(=O)=O)C3)C[C@@H]1CO` [Example 36, (2R)—N-hydroxy-4-(2-(((3R,5R)-5-(hydroxymethyl)-1-methylpyrrolidin-3-yl)buta-1,3-diyn-1-yl)-6-oxo-4,6-dihydro-5H-thieno[2,3-c]pyrrol-5-yl)-2-methyl-2-(methylsulfonyl)butanamide], the figures for the MIC against E. coli ATCC25922, against K. pneumoniae A-651 and against P. aeruginosa ATCC27853 were 0.5 µg/mL (≈ 1.01 µM), 1 µg/mL (≈ 2.03 µM) and 1 µg/mL (≈ 2.03 µM), respectively.

`C[C@@](CCN1Cc2cc(C#CC#CC3CN(CC4(O)COC4)C3)sc2C1=O)(C(=O)NO)S(C)(=O)=O` [Example 39, (2R)—N-hydroxy-4-(2-((1-((3-hydroxyoxetan-3-yl)methyl)azetidin-3-yl)buta-1,3-diyn-1-yl)-6-oxo-4,6-dihydro-5H-thieno[2,3-c]pyrrol-5-yl)-2-methyl-2-(methylsulfonyl)butanamide]: the MIC with E. coli ATCC25922 was determined as 1 µg/mL (≈ 1.92 µM); in the experiment on K. pneumoniae A-651 it was 2 µg/mL (≈ 3.83 µM); against P. aeruginosa ATCC27853, 2 µg/mL (≈ 3.83 µM).

`CN1[C@@H](CO)C[C@@H]1C#CC#Cc1cc2c(s1)C(=O)N(CC[C@](C)(C(=O)NO)S(C)(=O)=O)C2` [Example 40, (2R)—N-hydroxy-4-(2-(((2R,4R)-4-(hydroxymethyl)-1-methylazetidin-2-yl)buta-1,3-diyn-1-yl)-6-oxo-4,6-dihydro-5H-thieno[2,3-c]pyrrol-5-yl)-2-methyl-2-(methylsulfonyl)butanamide]: the MIC was found to be 0.25 µg/mL (≈ 0.521 µM) in the experiment on E. coli ATCC25922, 2 µg/mL (≈ 4.17 µM) against K. pneumoniae A-651 and 1 µg/mL (≈ 2.09 µM) against P. aeruginosa ATCC27853.

For `CN1C[C@H](C#CC#Cc2cc3c(s2)C(=O)N(CC[C@](C)(C(=O)NO)S(C)(=O)=O)C3)[C@H]1CF` [Example 41, (2R)-4-(2-(((2S,3S)-2-(fluoromethyl)-1-methylazetidin-3-yl)buta-1,3-diyn-1-yl)-6-oxo-4,6-dihydro-5H-thieno[2,3-c]pyrrol-5-yl)-N-hydroxy-2-methyl-2-(methylsulfonyl)butanamide], the values for the MIC with E. coli ATCC25922, against K. pneumoniae A-651 and in the experiment on P. aeruginosa ATCC27853 were 0.125 µg/mL (≈ 0.26 µM), 0.25 µg/mL (≈ 0.519 µM) and 1 µg/mL (≈ 2.08 µM), respectively.

With `C[C@@](CCN1Cc2cc(C#Cc3ccccc3)sc2C1=O)(C(=O)NO)S(C)(=O)=O` [Example 42, (2R)—N-hydroxy-2-methyl-2-(methylsulfonyl)-4-(6-oxo-2-(phenylethynyl)-4,6-dihydro-5H-thieno[2,3-c]pyrrol-5-yl)butanamide], the MIC in the experiment on E. coli ATCC25922 was at most 0.031 µg/mL; in the experiment with K. pneumoniae A-651, 0.125 µg/mL (≈ 0.289 µM); in the experiment on P. aeruginosa ATCC27853, 2 µg/mL (≈ 4.62 µM).

For the origin of these results see patent US20190031676A1, “ANTIBACTERIAL ANNULATED PYRROLIDIN-2-ONE DERIVATIVES” (priority 2015, published 2019).
